In patent US20090325977A1 (priority 2004, published 2009):

Tests used:
[1] = system: VEGF-stimulated endothelial cell proliferation (HUVEC); assay: HUVEC assay, VEGF-stimulated endothelial cell proliferation; assay type: cell-based; settings: Homo sapiens
[2] = target: stem cell factor receptor tyrosine kinase (SCF RTK, c-kit) (Homo sapiens, UniProt P10721); assay: inhibition of c-kit; assay type: biochemical
MG63 cells = MG63 cells stimulated by PDGF-AA; read-out: IC50, PDGFR-α dependent cellular proliferation; cited from earlier work
[3] = system: basal endothelial cell proliferation (HUVEC); assay: HUVEC assay, basal endothelial cell proliferation; assay type: cell-based; settings: Homo sapiens, no VEGF stimulation
Calu-6 tumour xenograft = assay: Calu-6 tumour xenograft, in vivo solid tumour model; settings: once-daily oral, 28 days

stem cell factor receptor tyrosine kinase (SCF RTK, c-kit), sequence (P10721 26-976): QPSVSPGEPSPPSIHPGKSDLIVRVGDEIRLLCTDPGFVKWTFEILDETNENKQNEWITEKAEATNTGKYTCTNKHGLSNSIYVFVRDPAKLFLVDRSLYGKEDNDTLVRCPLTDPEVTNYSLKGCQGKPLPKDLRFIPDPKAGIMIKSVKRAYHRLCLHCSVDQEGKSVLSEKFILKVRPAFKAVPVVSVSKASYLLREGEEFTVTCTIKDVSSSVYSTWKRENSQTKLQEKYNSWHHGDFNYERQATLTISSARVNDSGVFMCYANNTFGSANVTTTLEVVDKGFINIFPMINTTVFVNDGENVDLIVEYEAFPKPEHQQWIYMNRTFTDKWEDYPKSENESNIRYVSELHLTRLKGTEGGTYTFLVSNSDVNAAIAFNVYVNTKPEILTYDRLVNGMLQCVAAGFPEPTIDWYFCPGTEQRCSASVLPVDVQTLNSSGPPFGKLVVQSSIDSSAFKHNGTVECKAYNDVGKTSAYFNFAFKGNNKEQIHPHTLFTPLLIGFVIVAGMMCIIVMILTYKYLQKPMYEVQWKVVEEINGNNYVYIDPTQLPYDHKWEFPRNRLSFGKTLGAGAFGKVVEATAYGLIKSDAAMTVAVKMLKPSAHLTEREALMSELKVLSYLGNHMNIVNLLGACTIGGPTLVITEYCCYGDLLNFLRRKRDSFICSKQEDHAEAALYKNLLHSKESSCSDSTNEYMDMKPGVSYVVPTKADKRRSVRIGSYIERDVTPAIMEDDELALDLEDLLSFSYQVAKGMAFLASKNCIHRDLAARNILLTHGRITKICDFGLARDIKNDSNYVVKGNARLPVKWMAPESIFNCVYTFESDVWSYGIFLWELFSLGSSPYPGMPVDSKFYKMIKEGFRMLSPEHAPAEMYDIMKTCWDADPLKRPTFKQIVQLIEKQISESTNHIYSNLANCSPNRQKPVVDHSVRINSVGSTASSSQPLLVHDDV

inhibition of c-kit [2]: inhibits c-kit
SMILES: COc1cc2c(Oc3ccc4[nH]c(C)cc4c3F)ncnc2cc1OCCCN1CCCC1 [AZD2171, 4-(4-fluoro-2-methyl-1H-indol-5-yloxy)-6-methoxy-7-(3-(pyrrolidin-1-yl)propoxy)quinazoline]
IC50 [1]: 0.4 ± 0.2 nM | IC50 (MG63 cells): 40 nM | IC50 [3]: > 500 nM | inhibition of Calu-6 tumour xenograft growth (Calu-6 tumour xenograft; 1.5 mg/kg/day, P<0.01): 49% | inhibition of Calu-6 tumour xenograft growth (Calu-6 tumour xenograft; 3 mg/kg/day, P<0.0001): 69% | inhibition of Calu-6 tumour xenograft growth (Calu-6 tumour xenograft; 6 mg/kg/day, P<0.0001): 91%
